From patent publication US20260053767A1, “Hepatoprotective Compositions And Methods” (Jemyll, Ltd., priority 2022, published 2026)

Experiments:
Wistar rats [1] = experiment: Liver histology (H&E, red oil ORO, Sirius red) in rats on high fat/high cholesterol diet with or without DDA; assay type: in vivo
From the text: Animal Studies. All in vivo studies used Wistar rats that were kept for 9 weeks on a high fat/high cholesterol diet. The animals were then separated into two groups, a control group that continued the high fat/high cholesterol diet with regular water, whereas the treatment group continued the high fat/high cholesterol diet with water containing DDA (dodecanedioic acid) in an amount of 1% of the caloric intake. After all animals were separated in the respective test groups, body weights were recorded, and a glucose challenge test administered. […] Such effect is particularly unexpected as the quantity of DDA in the food was well below any quantity that was reasonably expected.
While not wishing to be bound by any specific theory or hypothesis, the inventors contemplate that the DDA at the low levels inhibits the trans-differentiation of hepatic stellate cells to myofibroblasts that produce extracellular matrix proteins (including collagen), likely by protecting them from damage due to reactive oxygen species (ROS).

SIRT1 = SIRT1 levels in liver cells; assay type: cell-based; conditions: AML-12 liver cells, 6 hours; p=0.127
From the text: (§1) To that end, the inventors used endothelial cells (EOMA cells) and liver cells (AML-12 cells) in vitro and quantified various markers in response to exposure of the cells to environmental challenge in the presence and absence of DDA at low concentrations. Unless indicated otherwise, the DDA concentration in the in vitro experiments was 5 mcg per microliter. More specifically, the inventors measured p-H2AX protein levels as a marker for DNA damage, PGC-1α protein levels as a marker for mitochondrial biogenesis, NAMPT enzyme levels as a marker for potential for NAD+ production, and total antioxidant capacity as a marker of cellular health. In addition, the inventors also measured global SIRT activity as a gauge of activity for all SIRT enzymes, and in particular SIRT1 enzyme levels as markers for autophagy and various beneficial processes associated with a caloric restricted diet, and SIRT3 levels as markers for mitochondrial function and longevity.
In still further experiments, the inventors also investigated whether or not DDDA could have stimulatory effects on selected SIRT proteins. More specifically, the inventors tested the effects of DDDA on SIRT3 and SIRT1, and exemplary results are shown in FIG. 9 and FIG. 10, respectively. […] N=5-6 plates per treatment. […] Beyond this trend, however, no other observations were evident. N=5-6 plates per treatment.

[2] = test system: endothelial cells (EOMA cells); experiment: DNA damage in endothelial cells after oxidative insult by H2O2; assay type: cell-based; conditions: 6 hours, p-value >0.100
From the text: as §1
In yet a further series of experiments, the inventors also sought to confirm whether or not DDDA would have a modulatory effect in endothelial cells using the same markers and experimental conditions as noted above.
Finally, the inventors also evaluated DNA damage in endothelial cells after oxidative insult by H2O2, and exemplary results are shown in FIG. 17. […] N=5-6 plates per treatment.

Wistar rats [3] = experiment: Study 1 (prevention): liver histology (H&E, Oil Red O, Sirius Red); assay type: in vivo; conditions: Study 1, 4 weeks, 1% (w/vol) in drinking water
Experimental: Study design: All animal procedures were approved by the Catholic University of Rome Institutional Animal Care Committee. The design of the studies is summarized in FIG. 18, Panels A and B. • Study 1: Twenty adult Wistar rats, aged 8-10 weeks, were included in the study. The rats were housed in individual cages at 22° C. with 12-h light cycles and had ad libitum access to food and water. Rats were fed a high-fat high-cholesterol diet (44% Carbohydrate, 14% Protein, 42% fat+0.2% Cholesterol) (Mucedola, Milan, IT) for four weeks in the presence or absence of 1% Dodecanedioic acid, sodium salt (w/vol) dissolved in the water (FIG. 18, Panel A). Body weight and food/water intake were monitored weekly. • Study 2: Twenty adult Wistar rats, aged 8-10 weeks, were included in the study. The rats were housed in individual cages at 22° C. with 12-h light cycles and had ad libitum access to food and water. Rats were fed a high-fat high-cholesterol diet (44% Carbohydrate, 14% Protein, 42% fat+0.2% Cholesterol) (Mucedola, Milan, IT). After nine weeks of diet, rats were randomly assigned to one of the following groups: Four weeks of high-fat high-cholesterol diet or four weeks of high-fat high-cholesterol diet and 1% Dodecanedioic acid, sodium salt (w/v) dissolved in the water FIG. 18, Panel B). Body weight and food/water intake were monitored weekly.
Histology: The day of the sacrifice fresh portions of liver were cut, embedded in cryo-embedding media (OCT) and snap frozen in liquid nitrogen. Biopsies were cut using a cryostat (5 μm) and slides stored a −20° C. until analyses.
Hematoxylin and Eosin staining was performed to assess hepatic steatosis. Slides were fixed 10 minutes with 95% ethanol, stained with hematoxylin for 1 minute, washed with distilled water, stained with eosin for 30 seconds and cleared in two changes of pure ethanol and two changes of xylene.
Oil Red O was performed to assess intracellular lipid accumulation. Slides were fixed overnight with 4% formalin, stained with Oil Red O solution for 1 hour. Counterstain was performed with Hematoxylin solution.
Sirius Red was used to identify hepatic fibrosis. Slides were fixed 10 minutes with 4% formalin, stained in Direct red 80 for 1 hour, washed in acidified water and dehydrate in 3 changes of absolute ethanol. After brief clearing in xylene, the slides were mounted in a resinous medium. Images were taken with an optical microscope (Leica DM2000, Wetzlar, DE). […]
Panels A and B. • Study 1: Twenty adult Wistar rats, aged 8-10 weeks, were included in the study. […] Body weight and food/water intake were monitored weekly. • Study 2: Twenty adult Wistar rats, aged 8-10 weeks, were included in the study. […] Body weight and food/water intake were monitored weekly. […]

O=C(O)CCCCCCCCCCC(=O)O [DDDA, dodecanedioic acid]
liver tissue morphology under H&E stain (Wistar rats [1]; high fat/high cholesterol diet with DDA vs without): significantly closer to normal liver histology
fatty deposits in liver tissue, red oil (ORO) stain (Wistar rats [1]; high fat/high cholesterol diet with low quantities of DDA): normal or near-normal microscopic appearance
fibrosis (Sirius red, hepatic collagen): rats without DDA compared to rats with DDA (Wistar rats [1]; high fat/high cholesterol diet, DDA at low concentrations): significantly increased fibrosis as compared to those rats where the diet included DDA at low concentrations
hepatoprotective effect (histopathology, overall) (Wistar rats [1]; low concentration of DDA in high fat/high cholesterol diet): substantial hepatoprotective effect
SIRT1 levels (SIRT1): trended upwards
DNA damage [2]: numerically decreased DNA damage
diet-induced NASH (histology, prevention) (Wistar rats [3]): prevents diet-induced NASH
fibrosis (Picro Sirius Red) (Wistar rats [3]): reduced
hepatic steatosis (Hematoxylin and Eosin) (Wistar rats [3]): reduced
neutral lipids deposition (Oil Red O) (Wistar rats [3]): reduced
